Experimental data as given in article PMC12467382, “Synthesis and Bioevaluation of Chalcones as Broad-Spectrum Antiviral Compounds Against Single-Stranded RNA Viruses” (Biomolecules, 2025).

Key:
PIV5-GFP = PIV5-GFP viral GFP expression in Hs27 cells by flow cytometry; assay type: cell-based, parainfluenza virus 5; conditions: 10 µM; Hs27 cells infected with PIV5-GFP
Protocol: Parainfluenza virus 5 (PIV5) expressing green fluorescence protein (GFP) was derived from cDNA, grown at 37 °C in Madin–Darby bovine kidney (MDBK) cells and titered on CV-1 (African green monkey kidney) cells with a fibroblast morphology as previously described. MDBK and CV-1 cells were the kind gift of Dr. Robert Lamb (Northwestern University). Cells were infected with virus diluted in DMEM supplemented with 10% bovine serum albumin (BSA) for 1 h or mock infected with media alone. Following incubation, cells were washed with phosphate-buffered saline (PBS) and cultured in DMEM supplemented with 2% heat-inactivated (HI) FBS.
Chalcone treatments were performed in DMEM supplemented with 10% HI FBS at the indicated concentrations and for indicated periods of time. Chalcone stocks were reconstituted in 100% dimethyl sulfoxide (DMSO) at a concentration of 10 mM and were serially diluted to working concentrations in DMSO. DMSO control treatments to test the effect of the vehicle were performed at volumes corresponding to the volume of chalcone added during each experiment (i.e., 1 µL chalcone DMSO solution/1 mL DMEM [10 µM] utilized alongside the DMSO control of 1 µL/1 mL DMEM). For cytotoxicity assays, untreated controls were subtracted from DMSO and chalcone sample values to account for the background signal.
For cytotoxicity assays, cells were stained with propidium iodide (PI) at a dilution of 1:100. Cell viability was determined via flow cytometry using the CytoFLEX (Beckman Coulter, Brea, CA, USA). CytExpert software (Beckman Coulter, version 2.4) was used to analyze independent events. PIV5 infection was monitored using flow cytometry via the FITC channel by analyzing GFP expression of individual cells. ZIKV infection was monitored utilizing Flavivirus group antigen–antibody (D1-4G2-4-15; Novus Biologicals, Littleton, CO, USA) staining for the ZIKV envelope protein. Cells were fixed and permeabilized using eBioscience Intracellular Fixation and Permeabilization Buffer (Invitrogen, Thermo Fisher Scientific, MA, USA) according to the manufacturer’s instructions. Secondary staining was performed using an anti-Alexa Fluor 488 (AF488) antibody (Invitrogen, Thermo Fisher Scientific, MA, USA). OC43 infection was monitored utilizing a primary antibody targeted toward the OC43 nucleocapsid protein (NP, MAB9013, Sigma-Aldrich, St. Louis, MO, USA). Secondary staining was performed using an AF488 antibody. Cells were fixed and permeabilized as previously described. LACV infection was monitored utilizing an anti-LACV Gc 807.31ab antibody kindly provided by Andrew Pekosv. Secondary staining was performed using an AF488 antibody. Cells were fixed and permeabilized as previously described.
To measure the effect of chalcone treatment on PIV5 virus growth, Hs27 cells were infected with PIV5-GFP. This engineered negative sense single-stranded RNA virus expresses GFP, which serves as a genome-encoded protein readout. After entering a cell, PIV5 must first undergo primary transcription to convert its genome into mRNA. As genome replication begins, nascent genomes then become templates for further conversion to mRNA and viral gene expression becomes amplified in a process called secondary transcription. For viral proteins to be detectable in cell culture, this amplification must first take place, making the expression of GFP a direct indicator of whether secondary transcription has successfully occurred. […] As shown in the representative data in Figure 4A, ~82% of DMSO-treated PIV5-GFP infected cells were positive for GFP expression. This was reduced to ~2% GFP-positive cells after treatment with 8o. […] These chalcones were therefore selected for further screening for cytotoxicity.
The GFP IC50 was defined as the concentration of chalcone required to inhibit the GFP expression (as measured via flow cytometry) by 50% when compared to DMSO-treated cells. […]

CHO-K1 cells = experiment: cells; assay type: cell-based, Chinese hamster; conditions: for CHOK1 48 h EC10: Chinese hamster; for EC50: Cricetulus griseus, CHO-K1, 48 h, read-out: CHOK1 48 h EC50
Protocol: (§1) A cell growth assay using the MTS reagent was conducted to assess the general toxicity of each chalcone compound. Briefly, cell growth was assayed in sterile 96-well microtiter plates (Costar 3599, Corning Inc., Corning, NY, USA) in the presence of each chalcone. Experiments were conducted in triplicate. In a typical experiment, there are two plates. The first is the control plate, which allows one to assess the starting cell population on the day of drug addition (Day 0). The second plate is the test plate where cells are plated and tested with different drug concentrations on Day 0. For example, either CHO cells or Hs27 cells were plated in a 200 µL volume at 1000 cells/well on both the control and test plates and incubated overnight to allow the cells to adhere. On Day 0, 1 μL of PBS was added to the control plate wells so that their total volume was 201 μL. MTS reagent (Promega Cell Titer 96 Aqueous non-radioactive cell proliferation reagent, Promega, Madison, WI, USA) was added (20 μL) to each well on the control plate, and that plate was incubated for 4 h in a 5% CO2 atmosphere at 37 °C and then read on the plate reader.
(§2) On Day 0, 1 μL of a 200× stock solution of each chalcone was added to the respected well on the test plate, and each condition was tested in triplicate. Drug solutions were prepared in advance in 100% DMSO and dosed so that the final DMSO concentration was 0.5%. For example, 1 μL of chalcone solution was added to the cells plated in each well in 200 μL of media. Of note, the respective chalcone addition occurred after an initial overnight incubation of each cell line in each well to reach Day 0 (the drugging day). After the chalcone was added, the cells were incubated in 5% CO2 for 48 h at 37 °C. After 48 h, the MTS reagent (Promega, Madison, WI, USA) was added (20 μL), and the test plates were incubated for an additional 4 h, and then, absorbance at 490 nm was measured on a BioTek Synergy MX plate reader. […] IC50 values were determined from the corresponding plot of relative absorbance at 490 nm vs. the drug concentration.
(§3) For highly colored materials like the chalcones, it is important to consider the contribution of the compound’s own absorbance to the MTS assay. To correct for the absorbance contribution of the chalcone itself, we measured each chalcone’s absorbance (Chalcone Abs) at 490 nm at the respective concentration (e.g., 10 µM) and subtracted the absorbance of the media background (blank Abs). This net value was then subtracted out of the Day 2 absorbance value to provide the % relative growth via the following equation:(1) % Relative Growth = (Day 2 Abs−Day 2 blank Abs)−Chalcone Abs−blank Abs−(Day 0 Abs−Day 0 blank Abs)/(Day 2 Control Abs −Day 2 blank Abs)−(Day 0 Abs−Day 0 blank Abs) ×100%
With the chalcones in hand, we then evaluated their growth-inhibition properties in Chinese hamster ovary (CHO-K1) cells and human Hs27 fibroblast cells. […] The results are shown in Table 2 along with a SAR summary of our findings in the host Hs27 cells.

Hs27 cells = experiment: 48 h MTS growth inhibition assay in Hs27 cells; assay type: cell-based, human; conditions: for EC50: Homo sapiens, HS27, 48 h, read-out: Hs27 48 h EC50; for Hs27 48 h EC10: highest concentration giving 90% relative new cell growth after 48 h, 0.5% DMSO
Protocol: as §1, with “Briefly, cell growth was assayed in sterile 96-well microtiter plates (Costar 3599, Corning Inc., Corning, NY, USA) in the presence of each chalcone.” left out
as §2, §3
With the chalcones in hand, we then evaluated their growth-inhibition properties in Chinese hamster ovary (CHO-K1) cells and human Hs27 fibroblast cells.

mTOR signaling [1] = experiment: Western blot of prps6 and rps6 as readouts of mTOR signaling in PANC-1 cells; assay type: cell-based; conditions: 72 h, chalcones 10 µM, rapamycin 10 nM
Protocol: PANC-1 cells were cultured in 6-well dishes and were lysed using modified radioimmunoprecipitation assay (RIPA) buffer (20 mM HEPES, pH 7.0, 150 mM NaCl, 1 mM EDTA, 1% NP-40, 1% deoxycholate, and 0.1% sodium dodecyl sulfate [SDS]) containing a complete protease inhibitor cocktail (Roche, Mannheim, Germany) and PhosSTOP phosphatase inhibitor cocktail (Roche, Mannheim, Germany). Protein concentrations were determined using the bicinchoninic acid (BCA) protein assay kit (Pierce, Rockford, IL, USA) according to manufacturer’s instructions. Cell lysates with 25 µg of protein were resolved on 12% sodium dodecyl sulfate-polyacrylamide gel electrophoresis (SDS-PAGE) gels and electro-transferred onto polyvinylidene difluoride (PVDF) membranes (Trans-Blot Turbo Transfer System, BioRad, Hercules, CA, USA). The samples were probed with rabbit monoclonal antibodies for the P-rps6 (1:1000) protein (Cell Signaling, Danvers, MA, USA) and mouse monoclonal antibodies for rps6 (1:1000) (Cell Signaling) and β-actin (1:5000) (Abcam, Waltham, MA, USA) proteins. Blots were visualized using anti-rabbit or anti-mouse horseradish peroxidase (HRP)-conjugated antibodies (Cell Signaling) and chemiluminescence reagent (Thermo Fisher Scientific, Waltham, MA, USA).
PANC-1 cells were chosen for this study as they are highly dependent on mTOR for their growth. PANC-1 cells were cultured and treated with the positive control rapamycin (10 nM) and chalcones NM5, 8a, 8o, 8s, 8v, and 8w (10 μM) for 72 h. Rapamycin and the chalcones were dissolved in 100% DMSO and dosed so that the final DMSO concentration was 0.1%. Cell lysates were collected and analyzed to determine the relative protein expression levels of rps6, prps6, and β-actin as a loading control (see Figure 12).

mTOR signaling [2] = test system: mTOR signaling; parameters: method as in PMID 28442256; conditions: SGR2 and Huh7.5 cell lines; cited from earlier work

Row | Compound | % GFP relative to DMSO treated (10 µM) (PIV5-GFP) | CHOK1 48 h EC10 (CHO-K1 cells) | EC50 (CHO-K1 cells) | EC50 (Hs27 cells) | Hs27 48 h EC10 (Hs27 cells) | prps6 expression relative to DMSO control (mTOR signaling [1]) | total rps6 protein expression relative to DMSO control (mTOR signaling [1]) | Effect on mTOR signaling (mTOR signaling [2])
1 | CCOc1ccc(Br)cc1/C=C/C(=O)c1c(O)cccc1OCCC(C)C [Chalcone 8r, (2E)-3-(5-Bromo-2-Ethoxy-Phenyl)-1-[2-Hydroxy-6-(3-Methyl-Butoxy)-Phenyl]-Propenone] | 108.7% | 4.7 ± 0.4 µM | 6.8 ± 0.7 µM | 16.9 ± 2 µM | 9.4 ± 0.7 µM |  |  | 
2 | CO[C@H]1C[C@@H]2CC[C@@H](C)[C@@](O)(O2)C(=O)C(=O)N2CCCC[C@H]2C(=O)O[C@H]([C@H](C)C[C@@H]2CC[C@@H](O)[C@H](OC)C2)CC(=O)[C@H](C)/C=C(\C)[C@@H](O)[C@@H](OC)C(=O)[C@H](C)C[C@H](C)/C=C/C=C/C=C/1C [rapamycin, reference compound] |  |  |  |  |  | loss of prps6 expression | no significant difference | 
3 | CCOc1ccc(Br)cc1/C=C/C(=O)c1c(O)cccc1OC [Chalcone 8q, (2E)-3-(5-Bromo-2-Ethoxy-Phenyl)-1-(2-Hydroxy-6-Methoxy-Phenyl)-Propenone] |  | 4.3 ± 0.4 µM | 6 ± 0.3 µM | 9.9 ± 1 µM | 2.7 ± 0.04 µM |  |  | 
4 | CCOc1ccc(Br)cc1/C=C/C(=O)c1c(O)cccc1OCCc1ccccc1 [Chalcone 8t, (2E)-3-(5-Bromo-2-Ethoxy-Phenyl)-1-[2-Hydroxy-6-Phenethyloxy]-Propenone] | 84.9% | 1.1 ± 0.1 µM | 2.6 ± 0.2 µM | 10.3 ± 0.5 µM | 6.4 ± 0.5 µM |  |  | 
5 | COc1ccc(/C=C/C(=O)c2c(O)cccc2OCc2ccccc2)c(OC)c1OC [Chalcone 8y, (2E)-1-(2-Benzloxy-6-Hydroxy-Phenyl)-3-(2,3,4-Trimethoxy-Phenyl)-Propenone] |  | 7.2 ± 0.6 µM | 15.8 ± 1 µM | 7.7 ± 0.2 µM | 6.3 ± 0.2 µM |  |  | 
6 | COc1ccc(/C=C/C(=O)c2cc(Br)cc(Br)c2O)cc1OC [NM5, (2E)-1-(3,5-Dibromo-2-hydroxyphenyl)-3-(3,4-dimethoxyphenyl)-2-propen-1-one, reference compound] |  | 1.1 ± 0.1 µM | 6.2 ± 0.3 µM | 1.8 ± 0.1 µM | 1.0 ± 0.1 µM | stimulate this prps6 mTOR readout |  | inhibit mTOR signaling
7 | COc1ccc(Br)cc1/C=C/C(=O)c1c(O)cccc1OCCc1ccccc1 [Chalcone 8u, (2E)-3-(5-Bromo-2-Methoxy-Phenyl)-1-[2-Hydroxy-6-Phenethyloxy]-Propenone] |  | 1.0 ± 0.1 µM | 4.3 ± 0.3 µM | 4.9 ± 0.6 µM | 3.4 ± 0.5 µM |  |  | 
